How the values were obtained:
CYP121 = CYP121 (Mycobacterium tuberculosis, UniProt P9WPP7); conditions: fragment 1 mM, P450 4-6 µM; relative to DMSO (417 nm)
CYP143 = CYP143 (Mycobacterium tuberculosis, UniProt P9WPL3); conditions: fragment 1 mM, P450 4-6 µM; relative to DMSO (416 nm)
CYP142 = CYP142 (Mycobacterium tuberculosis, UniProt P9WPL5); conditions: fragment 1 mM, P450 4-6 µM; relative to DMSO (418.5 nm)
CYP125 = CYP125 (Mycobacterium tuberculosis, UniProt P9WPP1); format: binding; conditions: fragment 1 mM, P450 4-6 µM; Soret shift relative to DMSO (393 nm)
CYP144 = CYP144 (Mycobacterium tuberculosis, UniProt P9WPL1); conditions: fragment 1 mM, P450 4-6 µM; relative to DMSO (421 nm)
CYP124 = CYP124 (Mycobacterium tuberculosis, UniProt P9WPP3); conditions: fragment 1 mM, P450 4-6 µM; relative to DMSO (419 nm)
CYP126 = CYP126 (Mycobacterium tuberculosis, UniProt P9WPN9); conditions: fragment 1 mM, P450 4-6 µM; relative to DMSO (418 nm)
Sequence of CYP126 (P9WPN9 whole entry, the tested form may be a part): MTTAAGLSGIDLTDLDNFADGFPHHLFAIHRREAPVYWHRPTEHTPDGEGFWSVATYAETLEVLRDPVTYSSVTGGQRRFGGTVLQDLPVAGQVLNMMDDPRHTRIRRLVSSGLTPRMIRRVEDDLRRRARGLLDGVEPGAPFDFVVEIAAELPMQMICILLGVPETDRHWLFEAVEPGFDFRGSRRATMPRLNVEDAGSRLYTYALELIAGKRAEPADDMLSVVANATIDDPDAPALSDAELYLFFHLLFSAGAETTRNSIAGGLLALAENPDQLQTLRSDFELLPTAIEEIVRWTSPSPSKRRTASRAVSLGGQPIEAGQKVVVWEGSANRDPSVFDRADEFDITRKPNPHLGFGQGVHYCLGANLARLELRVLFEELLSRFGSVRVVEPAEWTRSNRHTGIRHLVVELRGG

Sequence of CYP144 (P9WPL1 whole entry, the tested form may be a part): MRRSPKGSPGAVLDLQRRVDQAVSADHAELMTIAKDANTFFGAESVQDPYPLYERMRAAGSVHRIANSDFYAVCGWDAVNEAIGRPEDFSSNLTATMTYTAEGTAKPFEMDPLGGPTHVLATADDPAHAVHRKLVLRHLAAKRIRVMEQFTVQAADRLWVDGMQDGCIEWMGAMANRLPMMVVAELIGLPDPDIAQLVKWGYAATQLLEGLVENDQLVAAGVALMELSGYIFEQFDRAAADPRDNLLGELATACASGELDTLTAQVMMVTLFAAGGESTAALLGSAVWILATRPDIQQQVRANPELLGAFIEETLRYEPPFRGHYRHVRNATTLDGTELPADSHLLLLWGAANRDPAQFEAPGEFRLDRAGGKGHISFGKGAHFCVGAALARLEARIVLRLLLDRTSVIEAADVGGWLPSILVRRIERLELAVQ
Sequence of CYP121 (P9WPP7 whole entry, the tested form may be a part): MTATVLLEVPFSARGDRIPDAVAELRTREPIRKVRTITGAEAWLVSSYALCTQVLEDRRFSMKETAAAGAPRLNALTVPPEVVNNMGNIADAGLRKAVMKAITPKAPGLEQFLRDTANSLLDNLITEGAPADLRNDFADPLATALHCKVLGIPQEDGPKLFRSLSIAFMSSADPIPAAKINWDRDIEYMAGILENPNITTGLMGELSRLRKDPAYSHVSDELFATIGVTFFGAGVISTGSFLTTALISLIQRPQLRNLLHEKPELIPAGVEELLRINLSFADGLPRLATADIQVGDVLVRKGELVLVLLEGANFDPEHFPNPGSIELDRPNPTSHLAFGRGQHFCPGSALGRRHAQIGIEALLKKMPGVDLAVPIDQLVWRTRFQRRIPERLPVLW
Sequence of CYP143 (P9WPL3 whole entry, the tested form may be a part): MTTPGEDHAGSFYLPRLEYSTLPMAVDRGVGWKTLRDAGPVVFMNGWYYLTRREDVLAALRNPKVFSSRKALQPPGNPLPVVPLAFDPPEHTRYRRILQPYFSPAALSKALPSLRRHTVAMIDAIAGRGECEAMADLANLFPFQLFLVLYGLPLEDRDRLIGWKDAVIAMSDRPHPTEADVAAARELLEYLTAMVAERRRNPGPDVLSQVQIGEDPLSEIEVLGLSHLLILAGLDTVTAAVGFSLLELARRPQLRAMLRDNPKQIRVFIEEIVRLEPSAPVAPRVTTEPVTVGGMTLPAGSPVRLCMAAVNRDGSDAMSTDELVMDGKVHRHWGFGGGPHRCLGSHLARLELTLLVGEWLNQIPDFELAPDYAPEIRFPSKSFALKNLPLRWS
Sequence of CYP125 (P9WPP1 whole entry, the tested form may be a part): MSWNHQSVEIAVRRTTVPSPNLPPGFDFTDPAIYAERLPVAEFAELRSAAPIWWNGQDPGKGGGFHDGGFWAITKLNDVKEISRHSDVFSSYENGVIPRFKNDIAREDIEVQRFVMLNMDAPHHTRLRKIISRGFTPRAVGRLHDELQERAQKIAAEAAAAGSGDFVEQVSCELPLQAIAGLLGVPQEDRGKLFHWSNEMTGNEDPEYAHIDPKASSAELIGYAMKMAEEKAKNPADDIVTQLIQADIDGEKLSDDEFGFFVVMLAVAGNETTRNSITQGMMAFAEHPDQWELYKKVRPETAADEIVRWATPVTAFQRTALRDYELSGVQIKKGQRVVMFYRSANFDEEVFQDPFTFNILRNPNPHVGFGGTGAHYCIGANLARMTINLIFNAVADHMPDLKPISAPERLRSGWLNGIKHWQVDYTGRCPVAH
Sequence of CYP142 (P9WPL5 whole entry, the tested form may be a part): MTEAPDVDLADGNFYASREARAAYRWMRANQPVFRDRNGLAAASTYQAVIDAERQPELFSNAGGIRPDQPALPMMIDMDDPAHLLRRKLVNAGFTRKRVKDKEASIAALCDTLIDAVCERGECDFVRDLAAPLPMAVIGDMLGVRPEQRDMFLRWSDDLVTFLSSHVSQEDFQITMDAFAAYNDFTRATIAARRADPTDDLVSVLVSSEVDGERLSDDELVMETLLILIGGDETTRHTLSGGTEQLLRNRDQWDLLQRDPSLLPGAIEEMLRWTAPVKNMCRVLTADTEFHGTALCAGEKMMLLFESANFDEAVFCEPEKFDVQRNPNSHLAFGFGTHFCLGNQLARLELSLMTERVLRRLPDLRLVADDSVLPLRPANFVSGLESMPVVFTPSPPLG
Sequence of CYP124 (P9WPP3 whole entry, the tested form may be a part): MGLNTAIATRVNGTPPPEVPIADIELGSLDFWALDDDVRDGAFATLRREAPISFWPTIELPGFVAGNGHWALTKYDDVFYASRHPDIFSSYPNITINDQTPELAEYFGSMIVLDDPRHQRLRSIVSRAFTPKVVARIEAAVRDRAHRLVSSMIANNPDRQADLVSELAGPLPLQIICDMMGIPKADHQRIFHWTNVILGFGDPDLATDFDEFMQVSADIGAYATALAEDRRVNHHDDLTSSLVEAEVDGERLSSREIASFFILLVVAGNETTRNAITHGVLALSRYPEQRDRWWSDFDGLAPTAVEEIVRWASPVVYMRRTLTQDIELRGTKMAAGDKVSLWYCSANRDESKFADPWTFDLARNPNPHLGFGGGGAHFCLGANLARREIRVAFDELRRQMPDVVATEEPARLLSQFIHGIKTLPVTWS

Compound | Δλmax (nm) CYP121, fragment screen (CYP121) [nm] | Δλmax (nm) CYP143, fragment screen (CYP143) [nm] | Δλmax (nm) CYP142, fragment screen (CYP142) [nm] | Δλmax (nm) CYP125, fragment screen (CYP125) [nm] | Δλmax (nm) CYP144, fragment screen (CYP144) [nm] | Δλmax (nm) CYP124, fragment screen (CYP124) [nm] | Δλmax (nm) CYP126, fragment screen (CYP126) [nm]
O=C(O)c1cccc(O)n1 [compound 30] | 0 | 1 | 0 | 0 | 0 | 0 | 0
COc1ccc(C(C)=O)cn1 [compound 31] | 0 | 0.5 | 0 | 0 | 0 | 0 | 0
Cc1cc(C(=O)O)[nH]n1 [compound 32] | 0 | -0.5 | 0 | 0 | 0 | 0 | 0
OB(O)c1ccccc1 [compound 33] | 0 | 4 | 0 | 0 | 0 | 0 | 0
O=C(O)CCc1nc2ccccc2[nH]1 [compound 34] | 0 | 0.5 | 0 | 0 | 0 | 0 | 0
c1ccc(-c2cc[nH]n2)cc1 [compound 35] | 0 | 1 | 0 | -2 | 0 | -1 | 0
O=C(O)CCc1ccccc1 [compound 36] | 0 | 1 | 0 | 0 | 0 | 0 | 2
Cc1n[nH]cc1Br [compound 38] | 0 | 0 | 1.5 | 0 | 0 | 0 | 0
c1ccc2c(c1)CCNC2 [compound 39] | 0 | 1 | 1.5 | 0 | 0 | 2 | 0
